Laboratory results as given in patent US5530126A, “Process for the preparation of substituted 6-(pyrazol-3yl)-1,4-benzoxazin-3-ones” (Monsanto Company, priority 1994, dated 1996).

Columns and labels:
Format in all cases: in vivo
Seedling johnsongrass [1] = test: Pre-emergence herbicide test; settings: Sorghum halepense, read-out: % plant inhibition (Sejg); for inhibition at 11210 g/ha: 11.21 kg/ha
Description: (§1) The tests for pre-emergence herbicide activity are conducted as follows:
(§2) Topsoil is placed in an aluminum pan and compacted to a depth of 0.95 to 1.27 cm from the top of the pan. On the top of the soil is placed a predetermined number of seeds of each of several monocotyledonous and dicotyledonous annual plant species and/or vegetative propagules of various perennial plant species. A known amount of the active ingredient dissolved or suspended in an organic solvent, e.g., acetone, or water as carrier is then applied directly to the seed bed, which is then covered with a layer of untreated topsoil to level fill the pan. After treatment, the pans are moved to a greenhouse bench where they are watered from below as needed to give adequate moisture for germination and growth.
(§3) Approximately 10-14 days (usually 11 days) after seeding and treating, the pans are observed and the results (% inhibition) are recorded.
(§4) Tables 7 and 7A below summarize the results of the pre-emergence herbicidal activity tests of compounds of this invention in weeds. The herbicidal rating shown in these tables is the percent inhibition of each plant species. The plant species usually regarded as weeds which are utilized in one set of tests, the data for which are shown in the tables, are identified by letter headings above the columns in accordance with the following legend: […]

Morningglory [2] = test: Pre-emergence herbicide test; settings: Ipomoea, read-out: % plant inhibition (Mogl); for inhibition at 11210 g/ha: 11.21 kg/ha
Description: as §1, §2, §3, §4

Velvetleaf [3] = test: Pre-emergence herbicide test; settings: Abutilon theophrasti, read-out: % plant inhibition (Vele); for inhibition at 11210 g/ha: 11.21 kg/ha
Description: as §1, §2, §3, §4

Barnyardgrass [4] = test: Pre-emergence herbicide test; settings: Echinochloa crus-galli, read-out: % plant inhibition (Bygr); for inhibition at 11210 g/ha: 11.21 kg/ha
Description: as §1, §2, §3, §4

Annual bluegrass [5] = test: Pre-emergence herbicide test; settings: read-out: % plant inhibition (Anbg); for inhibition at 11210 g/ha: 11.21 kg/ha
Description: as §1, §2, §3, §4

Yellow nutsedge [6] = test: Pre-emergence herbicide test; settings: Cyperus, read-out: % plant inhibition (Yens); for inhibition at 11210 g/ha: 11.21 kg/ha
Description: as §1, §2, §3, §4

Wild buckwheat [7] = test: Pre-emergence herbicide test; settings: Fallopia convolvulus, read-out: % plant inhibition (Wibw); for inhibition at 11210 g/ha: 11.21 kg/ha
Description: as §1, §2, §3, §4

Downy Brome [8] = test: Pre-emergence herbicide test; settings: Bromus tectorum, read-out: % plant inhibition (Dobr); for inhibition at 11210 g/ha: 11.21 kg/ha
Description: as §1, §2, §3, §4

Indian Mustard [9] = test: Pre-emergence herbicide test; settings: Brassica juncea, read-out: % plant inhibition (Inmu); for inhibition at 11210 g/ha: 11.21 kg/ha
Description: as §1, §2, §3, §4

Cocklebur [10] = test: Pre-emergence herbicide test; settings: Xanthium strumarium, read-out: % plant inhibition (Cobu); for inhibition at 11210 g/ha: 11.21 kg/ha
Description: as §1, §2, §3, §4

Seedling johnsongrass [11] = test: Post-emergence herbicide test; settings: Sorghum halepense, read-out: % plant inhibition (Sejg); for inhibition at 11210 g/ha: 11.21 kg/ha
Source text: (§5) Topsoil is placed in aluminum pans having holes in the bottom and compacted to a depth of 0.95 to 1.27 cm from the top of the pan. A predetermined number of seeds of each of several dicotyledonous and monocotyledonous annual plant species and/or vegetative propagules for the perennial plant species are placed on the soil and pressed into the soil surface. The seeds and/or vegetative propagules are covered with soil and leveled. The pans are then placed on a bench in the greenhouse and watered from below as needed. After the plants reach the desired age (two to three weeks), each pan, is removed individually to a spraying chamber and sprayed by means of an atomizer, operating at a spray pressure of 170.3 kPa (10 psig) at the application rates noted. In the spray solution is an amount of an emulsifying agent mixture to give a spray solution or suspension which contains about 0.4% by volume of the emulsifier. The spray solution or suspension contains a sufficient amount of the candidate chemical in order to give application rates of the active ingredient corresponding to those shown in Tables 8 and 8A, while applying a total amount of solution or suspension equivalent to 1870 L/Ha (200 gallons/acre). The pans were returned to the greenhouse and watered as before and the injury to the plants as compared to the control is observed at approximately 10-14 days (usually 11 days) and in some instances observed again at 24-28 days (usually 25 days) after spraying. The post-emergent herbicidal activity shown in these tables is the percent inhibition of each plant species.

Morningglory [12] = test: Post-emergence herbicide test; settings: Ipomoea, read-out: % plant inhibition (Mogl); for inhibition at 11210 g/ha: 11.21 kg/ha
Source text: as §5

Velvetleaf [13] = test: Post-emergence herbicide test; settings: Abutilon theophrasti, read-out: % plant inhibition (Vele); for inhibition at 11210 g/ha: 11.21 kg/ha
Source text: as §5

Barnyardgrass [14] = test: Post-emergence herbicide test; settings: Echinochloa crus-galli, read-out: % plant inhibition (Bygr); for inhibition at 11210 g/ha: 11.21 kg/ha
Source text: as §5

Annual bluegrass [15] = test: Post-emergence herbicide test; settings: read-out: % plant inhibition (Anbg); for inhibition at 11210 g/ha: 11.21 kg/ha
Source text: as §5

Yellow nutsedge [16] = test: Post-emergence herbicide test; settings: Cyperus, read-out: % plant inhibition (Yens); for inhibition at 11210 g/ha: 11.21 kg/ha
Source text: as §5

Wild buckwheat [17] = test: Post-emergence herbicide test; settings: Fallopia convolvulus, read-out: % plant inhibition (Wibw); for inhibition at 11210 g/ha: 11.21 kg/ha
Source text: as §5

Downy Brome [18] = test: Post-emergence herbicide test; settings: Bromus tectorum, read-out: % plant inhibition (Dobr); for inhibition at 11210 g/ha: 11.21 kg/ha
Source text: as §5

Indian Mustard [19] = test: Post-emergence herbicide test; settings: Brassica juncea, read-out: % plant inhibition (Inmu); for inhibition at 11210 g/ha: 11.21 kg/ha
Source text: as §5

Cocklebur [20] = test: Post-emergence herbicide test; settings: Xanthium strumarium, read-out: % plant inhibition (Cobu); for inhibition at 11210 g/ha: 11.21 kg/ha
Source text: as §5

SMILES: Cn1nc(-c2cc([N+](=O)[O-])c(Cl)cc2F)c(Cl)c1C(F)F [Compound 198]
- inhibition at 1120 g/ha (Seedling johnsongrass [1]; 1.12 kg/ha): 0%
- inhibition at 1120 g/ha (Morningglory [2]; 1.12 kg/ha): 0%
- inhibition at 1120 g/ha (Velvetleaf [3]; 1.12 kg/ha): 80%
- inhibition at 1120 g/ha (Barnyardgrass [4]; 1.12 kg/ha): 0%
- inhibition at 1120 g/ha (Annual bluegrass [5]; 1.12 kg/ha): 0%
- inhibition at 1120 g/ha (Yellow nutsedge [6]; 1.12 kg/ha): 0%
- inhibition at 1120 g/ha (Wild buckwheat [7]; 1.12 kg/ha): 70%
- inhibition at 1120 g/ha (Downy Brome [8]; 1.12 kg/ha): 0%
- inhibition at 1120 g/ha (Indian Mustard [9]; 1.12 kg/ha): 20%
- inhibition at 1120 g/ha (Cocklebur [10]; 1.12 kg/ha): 0%
- inhibition at 1120 g/ha (Seedling johnsongrass [11]; 1.12 kg/ha): 70%
- inhibition at 1120 g/ha (Morningglory [12]; 1.12 kg/ha): 90%
- inhibition at 1120 g/ha (Velvetleaf [13]; 1.12 kg/ha): 100%
- inhibition at 1120 g/ha (Barnyardgrass [14]; 1.12 kg/ha): 50%
- inhibition at 1120 g/ha (Annual bluegrass [15]; 1.12 kg/ha): 50%
- inhibition at 1120 g/ha (Yellow nutsedge [16]; 1.12 kg/ha): 0%
- inhibition at 1120 g/ha (Wild buckwheat [17]; 1.12 kg/ha): 100%
- inhibition at 1120 g/ha (Downy Brome [18]; 1.12 kg/ha): 70%
- inhibition at 1120 g/ha (Indian Mustard [19]; 1.12 kg/ha): 100%
- inhibition at 1120 g/ha (Cocklebur [20]; 1.12 kg/ha): 70%

SMILES: COc1cc(-c2c(Cl)c(C(F)(F)F)nn2C)c(F)cc1N [Compound 73]
- inhibition at 11210 g/ha (Seedling johnsongrass [1]): 0%
- inhibition at 11210 g/ha (Morningglory [2]): 0%
- inhibition at 11210 g/ha (Velvetleaf [3]): 50%
- inhibition at 11210 g/ha (Barnyardgrass [4]): 0%
- inhibition at 11210 g/ha (Annual bluegrass [5]): 0%
- inhibition at 11210 g/ha (Yellow nutsedge [6]): 0%
- inhibition at 11210 g/ha (Wild buckwheat [7]): 0%
- inhibition at 11210 g/ha (Downy Brome [8]): 0%
- inhibition at 11210 g/ha (Indian Mustard [9]): 20%
- inhibition at 11210 g/ha (Cocklebur [10]): 0%
- inhibition at 11210 g/ha (Seedling johnsongrass [11]): 0%
- inhibition at 11210 g/ha (Morningglory [12]): 0%
- inhibition at 11210 g/ha (Velvetleaf [13]): 20%
- inhibition at 11210 g/ha (Barnyardgrass [14]): 0%
- inhibition at 11210 g/ha (Annual bluegrass [15]): 0%
- inhibition at 11210 g/ha (Yellow nutsedge [16]): 0%
- inhibition at 11210 g/ha (Wild buckwheat [17]): 20%
- inhibition at 11210 g/ha (Downy Brome [18]): 0%
- inhibition at 11210 g/ha (Indian Mustard [19]): 20%
- inhibition at 11210 g/ha (Cocklebur [20]): 10%

SMILES: Cn1nc(C(F)(F)F)c(Cl)c1-c1ccc([N+](=O)[O-])cc1 [Compound 65]
- inhibition at 11210 g/ha (Seedling johnsongrass [1]): 70%
- inhibition at 11210 g/ha (Morningglory [2]): 20%
- inhibition at 11210 g/ha (Velvetleaf [3]): 90%
- inhibition at 11210 g/ha (Barnyardgrass [4]): 30%
- inhibition at 11210 g/ha (Annual bluegrass [5]): 70%
- inhibition at 11210 g/ha (Yellow nutsedge [6]): 0%
- inhibition at 11210 g/ha (Wild buckwheat [7]): 80%
- inhibition at 11210 g/ha (Downy Brome [8]): 0%
- inhibition at 11210 g/ha (Cocklebur [10]): 0%
- inhibition at 11210 g/ha (Seedling johnsongrass [11]): 50%
- inhibition at 11210 g/ha (Morningglory [12]): 50%
- inhibition at 11210 g/ha (Velvetleaf [13]): 70%
- inhibition at 11210 g/ha (Barnyardgrass [14]): 70%
- inhibition at 11210 g/ha (Annual bluegrass [15]): 0%
- inhibition at 11210 g/ha (Yellow nutsedge [16]): 0%
- inhibition at 11210 g/ha (Wild buckwheat [17]): 70%
- inhibition at 11210 g/ha (Downy Brome [18]): 10%
- inhibition at 11210 g/ha (Indian Mustard [19]): 30%
- inhibition at 11210 g/ha (Cocklebur [20]): 40%

SMILES: Cn1nc(C(F)(F)F)c(Br)c1-c1cc(F)ccc1F [Compound 68]
- inhibition at 11210 g/ha (Seedling johnsongrass [1]): 10%
- inhibition at 11210 g/ha (Morningglory [2]): 30%
- inhibition at 11210 g/ha (Velvetleaf [3]): 40%
- inhibition at 11210 g/ha (Barnyardgrass [4]): 10%
- inhibition at 11210 g/ha (Annual bluegrass [5]): 0%
- inhibition at 11210 g/ha (Yellow nutsedge [6]): 30%
- inhibition at 11210 g/ha (Downy Brome [8]): 0%
- inhibition at 11210 g/ha (Indian Mustard [9]): 0%
- inhibition at 11210 g/ha (Cocklebur [10]): 0%
- inhibition at 11210 g/ha (Seedling johnsongrass [11]): 0%
- inhibition at 11210 g/ha (Morningglory [12]): 0%
- inhibition at 11210 g/ha (Velvetleaf [13]): 0%
- inhibition at 11210 g/ha (Barnyardgrass [14]): 0%
- inhibition at 11210 g/ha (Annual bluegrass [15]): 0%
- inhibition at 11210 g/ha (Yellow nutsedge [16]): 0%
- inhibition at 11210 g/ha (Wild buckwheat [17]): 0%
- inhibition at 11210 g/ha (Downy Brome [18]): 0%
- inhibition at 11210 g/ha (Indian Mustard [19]): 0%
- inhibition at 11210 g/ha (Cocklebur [20]): 0%
